The source made the active and inactive calls. The rule behind the calls is not given here. Positions of bridges follow the written chain, without caps; N, C: chain ends. Residues, ends and D or L forms follow the SMILES beside them.

The subject of data set [1] is MM96L. Put plainly: Cytotoxicity against human MM96L cells assessed as survivality at 2 uM after 3 days by SRB assay. It is filed as functional. Conditions: 72 h, read-out: Survival.
A short description of data set [2]: Toxicity in human erythrocytes assessed as hemolytic activity up to 50 uM after 1 hr. It is filed as cell-based. As to conditions: erythrocyte.
Data set [3] is described as follows: Cytotoxicity against human NFF cells assessed as survivality at 2 uM after 3 days by SRB assay. Conditions: read-out: Survival. It is filed as cell-based. A general note: Sulforhodamine B stains cellular protein and so reports cell mass.
Data set [4] deals with MM96L. Description: Cytotoxicity against human MM96L cells assessed as survivality at 1.3 uM after 3 days by SRB assay. It is filed as functional. Conditions: 72 h, read-out: Survival.
A short description of data set [5]: Cytotoxicity against human NFF cells assessed as survivality at 1.3 uM after 3 days by SRB assay. As to conditions: read-out: Survival. It is filed as cell-based.
The nature of data set [6]: Inhibition of trypsin at 0.04 to 0.5 uM by UV-visible spectrophotometer.
The next data set has as its system Helicoverpa armigera. Put plainly: Insecticidal activity against Helicoverpa armigera larvae assessed as decrease in weight at 0.825 umol after 96 hrs. It is filed as functional, organism-based.

Regarding `CC[C@H](C)[C@@H]1NC(=O)CNC(=O)[C@H](C(C)C)NC(=O)CNC(=O)[C@@H]2CCCN2C(=O)[C@H]([C@@H](C)O)NC(=O)[C@H](C(C)C)NC(=O)[C@H]([C@@H](C)O)NC(=O)[C@@H]2CCCN2C(=O)[C@H](Cc2c[nH]c3ccccc23)NC(=O)[C@@H]2CSSC[C@@H]3NC(=O)[C@H](CCC(N)=O)NC(=O)[C@H](CCCCN)NC(=O)CNC(=O)[C@H](CCC(=O)O)NC(=O)[C@@H](NC(=O)CN)CSSC[C@H](NC(=O)CNC(=O)CNC(=O)CNC(=O)[C@H](CSSC[C@@H](C(=O)N[C@@H](CO)C(=O)N[C@@H](CO)C(=O)N[C@@H](CO)C(=O)O)NC1=O)NC(=O)[C@H](CO)NC(=O)[C@H](CCCNC(=N)N)NC(=O)[C@H](Cc1ccccc1)NC(=O)[C@H](CC(C)C)NC(=O)CNC3=O)C(=O)N[C@@H](CCCNC(=N)N)C(=O)N2` [listing 1 of 2 here], the viability at 2 µM with MM96L [1] is 57%.

Regarding `CC[C@H](C)[C@@H]1NC(=O)CNC(=O)[C@H](C(C)C)NC(=O)CNC(=O)[C@@H]2CCCN2C(=O)[C@H]([C@@H](C)O)NC(=O)[C@H](C(C)C)NC(=O)[C@H]([C@@H](C)O)NC(=O)[C@@H]2CCCN2C(=O)[C@H](Cc2c[nH]c3ccccc23)NC(=O)[C@@H]2CSSC[C@@H]3NC(=O)[C@H](CCC(N)=O)NC(=O)[C@H](CCCCN)NC(=O)CNC(=O)[C@H](CCC(=O)O)NC(=O)[C@@H](NC(=O)CN)CSSC[C@H](NC(=O)CNC(=O)CNC(=O)CNC(=O)[C@H](CSSC[C@@H](C(=O)N[C@@H](CO)C(=O)N[C@@H](CO)C(=O)N[C@@H](CO)C(=O)O)NC1=O)NC(=O)[C@H](CO)NC(=O)[C@H](CCCNC(=N)N)NC(=O)[C@H](Cc1ccccc1)NC(=O)[C@H](CC(C)C)NC(=O)CNC3=O)C(=O)N[C@@H](CCCNC(=N)N)C(=O)N2` [listing 2 of 2 here], the Activity entry in data set [2] is “Non-toxic”. Further, the viability at 72 h, 2 µM in data set [3] was 89%.

`CC[C@H](C)[C@@H]1NC(=O)CNC(=O)[C@H](C(C)C)NC(=O)CNC(=O)[C@@H]2CCCN2C(=O)[C@H]([C@@H](C)O)NC(=O)[C@H](C(C)C)NC(=O)[C@H]([C@@H](C)O)NC(=O)[C@@H]2CCCN2C(=O)[C@H](Cc2c[nH]c3ccccc23)NC(=O)[C@@H]2CSSC[C@@H]3NC(=O)[C@@H]4CCCN4C(=O)[C@H](CCCCN)NC(=O)CNC(=O)[C@H](CCC(=O)O)NC(=O)[C@@H](NC(=O)CN)CSSC[C@H](NC(=O)CNC(=O)CNC(=O)CNC(=O)[C@H](CSSC[C@@H](C(=O)N[C@@H](CO)C(=O)N[C@@H](CO)C(=O)N[C@@H](CO)C(=O)O)NC1=O)NC(=O)[C@H](CO)NC(=O)[C@H](CCCNC(=N)N)NC(=O)[C@H](Cc1ccccc1)NC(=O)[C@H](CC(C)C)NC(=O)CNC3=O)C(=O)N[C@@H](CCCNC(=N)N)C(=O)N2` (H-GCEGKPCGLFRSCGGGCRCWPTVTPGVGICSSS-OH; disulfide 2-17, 7-19, 13-30): the viability at 1.3 µM in the data set with MM96L [4] was determined as 51%. For the same molecule, the viability at 72 h, 1.3 µM in data set [5] is 86%.

As to `CC[C@H](C)[C@@H]1NC(=O)CNC(=O)[C@H](C(C)C)NC(=O)CNC(=O)[C@@H]2CCCN2C(=O)[C@H]([C@@H](C)O)NC(=O)[C@H](C(C)C)NC(=O)[C@H]([C@@H](C)O)NC(=O)[C@@H]2CCCN2C(=O)[C@H](Cc2c[nH]c3ccccc23)NC(=O)[C@@H]2CSSC[C@@H]3NC(=O)[C@H](CCC(N)=O)NC(=O)[C@H](CCCCN)NC(=O)CNC(=O)[C@H](CCC(=O)O)NC(=O)[C@@H](NC(=O)CN)CSSC[C@H](NC(=O)CNC(=O)CNC(=O)CNC(=O)[C@H](CSSC[C@H](C(=O)N[C@@H](CO)C(=O)N[C@@H](CO)C(=O)N[C@@H](CO)C(=O)O)NC1=O)NC(=O)[C@H](CO)NC(=O)[C@H](CCCNC(=N)N)NC(=O)[C@H](Cc1ccccc1)NC(=O)[C@H](CC(C)C)NC(=O)CNC3=O)C(=O)N[C@@H](CCCNC(=N)N)C(=O)N2`, the inhibition entry in data set [6] is “inactive”. Further, the outcome in the data set with Helicoverpa armigera was inactive.

The record behind these values is ChEMBL document CHEMBL1154250, “Isolation and characterization of peptides from Momordica cochinchinensis seeds” (J Nat Prod, 2009).
